pEC50: −log10 of the molar value.
Columns and labels:
LXRα [1] = target: T1, LXRα (Homo sapiens, UniProt Q13133); test: peptide sensor LXR assay (in vitro); format: biochemical
T1 sequence (Q13133 1-447): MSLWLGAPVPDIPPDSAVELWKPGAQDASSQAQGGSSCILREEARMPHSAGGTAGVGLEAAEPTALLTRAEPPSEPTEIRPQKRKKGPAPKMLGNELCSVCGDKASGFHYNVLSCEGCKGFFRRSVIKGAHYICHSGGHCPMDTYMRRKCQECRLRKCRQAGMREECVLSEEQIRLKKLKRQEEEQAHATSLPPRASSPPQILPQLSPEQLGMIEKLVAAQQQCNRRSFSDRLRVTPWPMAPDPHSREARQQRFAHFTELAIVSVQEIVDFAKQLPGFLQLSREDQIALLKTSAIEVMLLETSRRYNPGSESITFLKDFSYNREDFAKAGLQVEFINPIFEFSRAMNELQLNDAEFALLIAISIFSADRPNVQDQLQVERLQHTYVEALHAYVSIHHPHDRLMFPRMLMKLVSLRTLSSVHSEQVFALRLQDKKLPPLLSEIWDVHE
Protocol: (§1) LXRα agonist activity can be characterized in a cell-based assay or a peptide-sensor assay. The same assays can be utilized to characterize LXRα antagonist activity, by evaluating the ability of a compound to block the effects of an LXRα agonist, such as 24,25-epoxycholesterol.
The peptide sensor LXR assay is an in vitro assay and was conducted as generally described in co-pending applications Ser. Nos. 08/975,614 (filed Nov. 21, 1997) and 09/163,713 (filed Sep. 30, 1998).

LXRα [2] = target: T2, LXRα (Homo sapiens, UniProt Q13133); test: cell-based GAL4-LXRα luciferase reporter assay; settings: 293 cells with GAL4 DNA-binding domain fused to LXRα ligand-binding domain, UAS luciferase reporter; concentration producing 50% of maximal luciferase activity
T2 construct: expressed in transfected cells; host or cells: 293 cells
T2 sequence (Q13133 209-447 limits assumed): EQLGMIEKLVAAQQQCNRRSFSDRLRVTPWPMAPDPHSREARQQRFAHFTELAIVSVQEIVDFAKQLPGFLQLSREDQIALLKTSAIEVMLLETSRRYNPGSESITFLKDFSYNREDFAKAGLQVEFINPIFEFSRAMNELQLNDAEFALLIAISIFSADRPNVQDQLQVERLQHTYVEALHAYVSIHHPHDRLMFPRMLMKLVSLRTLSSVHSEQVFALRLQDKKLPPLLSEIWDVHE
Description: as §1
Briefly, for the cell-based assay, a DNA-binding domain of the nonreceptor transcription factor GAL4 was fused to the putative ligand-binding domain of LXRα. The resultant construct was introduced into 293 cells, together with UAS-containing luciferase reporter construct. The transfected cells were then treated with chemical libraries and luciferase activity was measured. Individual compounds were evaluated relative to a control (no addition of compound) and the EC50 was determined as the concentration necessary to produce 50% of the maximal luciferase activity.

pEC50 (LXRα [1]): > 5.70
pEC50 (LXRα [2]): > 5.70
SMILES: O=S(=O)(Nc1ccc(C(O)(C(F)(F)F)C(F)(F)F)cc1)c1ccccc1 [Compound 2]

Reference: patent publication US6316503A, “LXR modulators” (Tularik Inc., priority 2000, dated 2001)
